The source of these data is article PMC12892976, “Alkylation-based optimization of antifungal FPPS inhibitors yields a potent, broad-spectrum lipophilic zoledronate derivative” (mBio, 2025).

In brackets after ≈: the same amount, converted by molar mass.

Assay [1] relates to C. albicans. Briefly: ergosterol quantitation. The assay is classed as cell-based, Candida albicans. As to conditions: 1× MIC vs no-drug control. Here is the method:
(§1) Treated cultures were incubated at 30°C with shaking for 18 h for C. albicans and A. fumigatus and for 32 h for C. neoformans. Cell membrane ergosterol was then extracted and quantified as described previously ([48]).

In assay [2] the test system is C. albicans. Briefly: membrane depolarization, diS-C3(3). As to conditions: diS-C3(3) emission maximum. In kind it is cell-based, Candida albicans. Here is the method: (§2) Membrane depolarization was determined using potential-sensitive fluorophore diS-C3(3) (Sigma), as described previously ([51]). Yeast cells and A. fumigatus conidia were treated as described above, then washed with citrate phosphate buffer and labeled with 20 nM diS-C3(3) at a final concentration of 10^6 cells/mL for yeasts and 10^4 conidia/mL for Aspergillus. Cells were transferred to a microplate (Invitrogen), then emission spectra between 560 and 585 nm (λexcitation = 531 nm) were obtained every 12 min for 1 h using a CLARIOstar plate reader (BMG Labtech). The emission λmax was determined at each timepoint.

The subject of assay [3] is C. albicans. Briefly: ROS accumulation, DCFDA. The assay is classed as cell-based, Candida albicans. Here is the method:
(§3) All cultures were incubated for 6 h and then labeled with 20 µM DCFDA in PBS for 30 min. Labeled cultures were transferred into a microplate, and fluorescence intensity was measured using a CLARIOstar plate reader (BMG Labtech).

In assay [4] the test system is 38 species of clinically relevant fungi. Briefly: MIC summary across 38 species of clinically relevant fungi. The assay is classed as cell-based. As to conditions: 38 fungal species; for MIC: read-out: GM MIC. The text has this: […]; Table S3). […]. […] […]. […] […].
In a further assay the test system is Enterococcus faecalis. The assay is described as follows: antibacterial MIC. The assay is classed as cell-based. The text has this: (§4) […]; Table S3). […]. […] […].
Another assay relates to Staphylococcus aureus. Briefly: antibacterial MIC. In kind it is cell-based.
Description: as §4

In the next assay the test system is Bacillus subtilis. Briefly: antibacterial MIC. In kind it is cell-based.
Description: as §4

The test system of a further assay is Acinetobacter baumanii. Briefly: antibacterial MIC. As to conditions: Acinetobacter baumannii. In kind it is cell-based.
Description: as §4

A further assay has as its system Proteus vulgaris. Briefly: antibacterial MIC. In kind it is cell-based.
Description: as §4

The next assay concerns Enterobacter aerogenes. The assay is described as follows: antibacterial MIC. In kind it is cell-based. The conditions noted are these: Klebsiella aerogenes.
Description: as §4

The next assay has as its system Escherichia coli. Briefly: antibacterial MIC. In kind it is cell-based.
Description: as §4

In a further assay the test system is Klebsiella pneumoniae. Briefly: antibacterial MIC. The assay is classed as cell-based.
Description: as §4

The next assay deals with Streptococcus pneumoniae. Briefly: antibacterial MIC. The assay is classed as cell-based.
Description: as §4

The test system of another assay is Cryptococcus neoformans. The assay is described as follows: time-kill assay. In kind it is cell-based. The conditions noted are these: 1× MIC, C. neoformans. As to the method: (§5) Cultures were incubated at 37°C with shaking at 200 rpm. Aliquots were withdrawn at 12, 24, 36, and 48 h post-treatment for both species, and additionally at 60 and 72 h for C. neoformans, then back-plated onto SDA. Viable cell counts were obtained after 48 h.

Another assay deals with Candida albicans. The assay is described as follows: time-kill assay. The assay is classed as cell-based. As to conditions: 2× MIC, C. albicans. Here is the method:
as §5

The subject of assay [5] is C. neoformans. The assay is described as follows: ergosterol quantitation. In kind it is cell-based, Cryptococcus neoformans. As to conditions: 1× MIC vs no-drug control. As to the method:
as §1

Assay [6] concerns C. neoformans. Briefly: membrane fluidity, TMA-DPH anisotropy. The assay is classed as cell-based, Cryptococcus neoformans. Here is the method: Candida albicans cells were incubated for 6 h, and C. neoformans cells were incubated for 9 h at 30°C, washed, then labeled with 2 µM TMA-DPH in PBS for 10 min. […] Mycelia were fixed, and protoplasts were prepared as described previously ([50]). Protoplasts were washed twice and labeled with 2 µM TMA-DPH in PBS for 30 min. For all labeled cultures, parallel and perpendicular fluorescence intensities were measured at 440 nm in a CLARIOstar plate reader (BMG Labtech), and anisotropy was calculated.

The test system of assay [7] is A. fumigatus. The assay is described as follows: ergosterol quantitation. As to conditions: 1× MIC vs no-drug control. The assay is classed as cell-based, Aspergillus fumigatus. As to the method: as §1
Assay [8] has as its system A. fumigatus. Briefly: ROS accumulation, DCFDA. In kind it is cell-based, Aspergillus fumigatus. As to the method: as §3
The next assay concerns fungal biofilms. The assay is described as follows: biofilm XTT assay, summary across all biofilms tested. The conditions noted are these: alone. (Formazan colour is commonly taken as a measure of viable cells.)
Assay [9] relates to C. neoformans. The assay is described as follows: ROS accumulation, DCFDA. The assay is classed as cell-based, Cryptococcus neoformans. As to the method: as §3
Another assay deals with TNF-α. The arrangement: method as in PMID 23610597. As to conditions: cited from earlier work.
The subject of assay [10] is C. albicans. Briefly: lipid peroxidation, TBARS assay (MDA). The assay is classed as cell-based, Candida albicans. As to the method: (§6) Cultures were incubated overnight, pelleted, and resuspended in 1 mL ice-cold PBS. Malondialdehyde (MDA) was extracted and quantified using a TBARS assay kit (Cayman Chemical #700870) according to the manufacturer’s instructions. MDA was normalized to total protein content in cell lysates.

Assay [11] concerns C. neoformans. The assay is described as follows: membrane depolarization, diS-C3(3). The assay is classed as cell-based, Cryptococcus neoformans. As to conditions: diS-C3(3) emission maximum. Here is the method: as §2
For a further assay, the system named is A. fumigatus infection. Briefly: Galleria mellonella survival assay. The assay is classed as in vivo. Here is the method:
(§7) Galleria mellonella larvae were reared and prepared as described previously ([53]). Larvae (n = 12 per treatment) were each inoculated with 10^5 spores or cells of A. fumigatus, C. albicans, or C. neoformans in 10 µL of PBS. […] Treated larvae were incubated at 37°C, and mortality was evaluated every day for 10 days.

The next assay has as its system C. neoformans infection. The assay is described as follows: Galleria mellonella survival assay. The assay is classed as in vivo. As to the method: as §7
A further assay deals with C. albicans infection. The assay is described as follows: Galleria mellonella survival assay. The assay is classed as in vivo. As to the method: as §7
For assay [12], the system named is A. fumigatus. Briefly: membrane depolarization, diS-C3(3). In kind it is cell-based, Aspergillus fumigatus. As to conditions: diS-C3(3) emission maximum. As to the method: as §2
In assay [13] the test system is A. fumigatus. Briefly: lipid peroxidation, TBARS assay (MDA). In kind it is cell-based, Aspergillus fumigatus. As to the method: as §6
Assay [14] has as its system C. neoformans. Briefly: membrane permeabilization, nucleic acid leakage. In kind it is cell-based, Cryptococcus neoformans. Here is the method:
Membrane permeabilization was determined by measuring the leakage of nucleic acid into the supernatant ([19]). […] Suspensions were incubated at 30°C with shaking at 200 rpm for 6 h, then passed through a 0.45 µm syringe filter. The A260 of each filtrate was measured with a DS-11 FX +benchtop spectrophotometer (DeNovix).

Assay [15] concerns C. neoformans. The assay is described as follows: lipid peroxidation, TBARS assay (MDA). In kind it is cell-based, Cryptococcus neoformans. As to the method: as §6
Assay [16] deals with 12 pathogenic bacterial species. Briefly: antibacterial MIC, summary of 12 pathogenic bacterial species. The assay is classed as cell-based.
Description: as §4

With `CCCCCCCCCCn1cc[n+](CC(O)(P(=O)(O)O)P(=O)(O)O)c1` [10-ZOL, Decyl-zoledronate], the membrane ergosterol content entry in the assay on C. albicans [1], in the assay with C. neoformans [5] and in the assay with A. fumigatus [7] was “significant depletion of membrane ergosterol” each time. The membrane depolarization entry with C. albicans [2], in the assay on C. neoformans [11] and with A. fumigatus [12] was “dose-dependent depolarization effect” each time. For the same compound, the “concentration at which ROS (DCFDA fluorescence) increase became significant” value with C. albicans [3], with A. fumigatus [8] and in the assay on C. neoformans [9] was 2 × MIC in each case. The “overall MIC range” value in [4] is 0.5 to 8 µg/mL. Besides, the MIC (in general, the lowest concentration that inhibits growth of the organism) in [4] is 1.39 ± 1.6 µg/mL; against Enterococcus faecalis, 16 µg/mL; with Staphylococcus aureus, 16 µg/mL; against Bacillus subtilis, above 16 µg/mL; against Acinetobacter baumanii, above 16 µg/mL; with Proteus vulgaris, above 16 µg/mL. Also, the MIC against Enterobacter aerogenes, in the assay with Escherichia coli, against Klebsiella pneumoniae and against Streptococcus pneumoniae was 16 µg/mL in each case. For the same compound, the entries for the “time at which viable cell count is significantly decreased from starting inoculum” value in the assay on Cryptococcus neoformans and with Candida albicans were 24 h and 12 h, respectively. For the same compound, in the assay on C. neoformans [6], the “concentration from which anisotropy differs significantly from no-drug control” value stood at 1 × MIC. This compound yielded an SIC80 range with fungal biofilms of 8 to 128 µg/mL. In addition, the TNF-α release entry in the assay on TNF-α is “stimulate the release of TNF-α”. Besides, the “concentration at which lipid peroxidation increase became significant” value in the assay with C. albicans [10] was determined as 1 × MIC; with A. fumigatus [13], 2 × MIC; in the assay with C. neoformans [15] it was 1 × MIC. The figures for the “survival compared with […] AMB” value with A. fumigatus infection (64 µg/mL), in the assay with C. neoformans infection (64 µg/mL) and with C. albicans infection (64 µg/mL) were “no significant difference in survival”, “outperformed AMB” and “outperformed AMB”, respectively. For the same compound, the “larval mortality vs no-drug control” value with A. fumigatus infection (single infusion of 64 µg/mL), in the assay on C. neoformans infection (single infusion of 64 µg/mL) and in the assay with C. albicans infection (single infusion of 64 µg/mL) was “significantly reduced mortality” in each case. Also, the “concentration giving significant increase in leaked nucleic acid” value in the assay with C. neoformans [14] is at least 1 × MIC. Moreover, in assay [16], the antibacterial activity result was “limited or no antibacterial activity”.

For the compound `O=P(O)(O)C(O)(Cn1ccnc1)P(=O)(O)O` [ZOL, zoledronate], the MIC is 148 ± 176 µg/mL (≈ 544 µM) in assay [4]; 256 µg/mL (≈ 941 µM) in the assay on Enterococcus faecalis; 256 µg/mL (≈ 941 µM) in the assay with Staphylococcus aureus; 256 µg/mL (≈ 941 µM) against Bacillus subtilis; above 256 µg/mL in the assay on Acinetobacter baumanii; 128 µg/mL (≈ 470 µM) against Proteus vulgaris. Moreover, the minimal inhibitory concentration (MIC) against Enterobacter aerogenes is above 256 µg/mL; with Escherichia coli, 256 µg/mL (≈ 941 µM); against Klebsiella pneumoniae, 256 µg/mL (≈ 941 µM); against Streptococcus pneumoniae it was above 256 µg/mL.
